Measurements published in publication PMC8451604, “Rational formulation engineering of fraxinellone utilizing 6-O-α-D-maltosyl-β-cyclodextrin for enhanced oral bioavailability and hepatic fibrosis therapy” (Drug Delivery, 2021).

Experiments:
[1] = Safety evaluation for seven weeks, histological examination (H&E); format: in vivo, Kunming male mice; conditions: mice, oral daily for 7 weeks, 20 mg/kg or equivalent G2-β-CD
Protocol: (§1) The Kunming male mice (weight of 28–30 g) were divided into 10 groups (n = 10): normal group, Frax or G2-β-CD-Frax treatment groups with a Frax dose of 5, 10, and 20 mg/kg, respectively, G2-β-CD solution treatment (equivalent to 20 mg/kg of G2-β-CD-Frax) group. Drug treatment continued every day for 7 weeks. One day after the last administration, blood and major tissues (heart, liver, spleen, lung, and kidney) were obtained from the blank group and drug-treated groups (20 mg/kg) for histological examination. The whole blood was directly analyzed using an automatic blood cell analyzer to obtain hematological parameters. The collected tissues were subjected to histological examination.

[2] = Blood biochemical assay (hematological parameters); format: in vivo, Kunming male mice; conditions: mice
Protocol: as §1

Caco-2 cells = experiment: Cytotoxicity in Caco-2 cells (MTT assay); format: cell-based; conditions: 4 h
Protocol: (§2) Cytotoxicity effects and cellular uptake ability of Frax, CDs, and CDs-Frax complexes were examined using Caco-2 cells. […] Each CD solution was also used to determine whether the cell toxicity was caused by Frax or CDs. For cellular uptake studies, Caco-2 cells were treated with Frax and CDs-Frax (100 μg/mL) for 0.5, 1, and 2 h, respectively. For P-gp inhibition evaluation, the cells were pretreated with verapamil at a concentration of 100 μg/mL and further treated with each drug or formulation. Thereafter, the cells were washed and replenished with fresh PBS (300 μL). The cell lysate was prepared by three cycles of freeze-thaw. Protein concentration in the samples was quantified by the BCA kit while the Frax concentration was determined by HPLC.

[3] = Phase solubility study of Frax with CDs; format: physicochemical; conditions: 37 °C, from phase solubility curves
Protocol: Frax was excessively mixed with increasing molar concentrations (0–350.00 mM) of each CD aqueous solution. […] The samples were subjected to HPLC analysis after centrifugation (4024.8 g, 10 min). Phase solubility profiles were plotted by monitoring Frax concentration as a function of the molar concentration of each CD. Based on the phase solubility curves, we calculated the apparent stability constants (Kc, L/mol) according to Equation (1): (1) Kc=Slope/S0(1−Slope) where S0 is the water solubility of Frax at equilibrium.

[4] = Cytotoxicity in Caco-2 cells (MTT assay); format: cell-based; conditions: human, Caco-2 cells; Caco-2, 300 μg/mL, 4 h; read-out: cell viability (cells remained viable)
Protocol: as §2

[5] = 7 weeks, colchicine group (0.2 mg/kg), in % (unit assumed)
[6] = 7 weeks, colchicine group (0.2 mg/kg), in fL (unit assumed)

OC[C@H]1O[C@H](O[C@H]2[C@H](O)[C@@H](O)[C@@H](OC[C@H]3O[C@@H]4O[C@H]5[C@H](O)[C@@H](O)[C@@H](O[C@H]6[C@H](O)[C@@H](O)[C@@H](O[C@H]7[C@H](O)[C@@H](O)C(O[C@H]8[C@H](O)[C@@H](O)[C@@H](O[C@H]9[C@H](O)[C@@H](O)[C@@H](O[C@H]%10[C@H](O)[C@@H](O)[C@@H](O[C@H]3[C@H](O)[C@H]4O)O[C@@H]%10CO)O[C@@H]9CO)O[C@@H]8CO)O[C@@H]7CO)O[C@@H]6CO)O[C@@H]5CO)O[C@@H]2CO)[C@H](O)[C@@H](O)[C@@H]1O [G2-β-CD, 6-O-α-D-maltosyl-β-cyclodextrin]
H&E staining of major tissues [1]: no inflammation and no cellular damage | changes in blood biochemical assay (in words) ([2]; oral daily for 7 weeks): no obvious changes | cell viability (cells remained viable) (Caco-2 cells; Caco-2, 300 μg/mL): over 85% | apparent stability constant (Kc) for Frax complexation [3]: 997.68 M⁻¹

CC(O)COC[C@H]1O[C@@H]2O[C@H]3[C@H](O)[C@@H](O)[C@@H](O[C@H]4[C@H](O)[C@@H](O)[C@@H](O[C@H]5[C@H](O)[C@@H](O)[C@@H](O[C@H]6[C@H](O)[C@@H](O)[C@@H](O[C@H]7[C@H](O)[C@@H](O)[C@@H](O[C@H]8[C@H](O)[C@@H](O)[C@@H](O[C@H]1[C@H](O)[C@H]2O)O[C@@H]8COCC(C)O)O[C@@H]7COCC(C)O)O[C@@H]6COCC(C)O)O[C@@H]5COCC(C)O)O[C@@H]4COCC(C)O)O[C@@H]3COCC(C)O (stereo partly drawn) [HP-β-CD, 2-hydroxypropyl-β-cyclodextrin]
viability at 4 h, 300 μg/mL [4]: > 85% | apparent stability constant (Kc) for Frax complexation [3]: 807.32 M⁻¹

OC[C@H]1O[C@@H]2O[C@H]3[C@H](O)[C@@H](O)[C@@H](O[C@H]4[C@H](O)[C@@H](O)[C@@H](O[C@H]5[C@H](O)[C@@H](O)[C@@H](O[C@H]6[C@H](O)[C@@H](O)[C@@H](O[C@H]7[C@H](O)[C@@H](O)[C@@H](O[C@H]8[C@H](O)[C@@H](O)[C@@H](O[C@H]1[C@H](O)[C@H]2O)O[C@@H]8CO)O[C@@H]7CO)O[C@@H]6CO)O[C@@H]5CO)O[C@@H]4CO)O[C@@H]3CO [β-CD, β-cyclodextrin]
apparent stability constant (Kc) for Frax complexation [3]: 109.34 M⁻¹

Sulfobutyl ether-β-cyclodextrin [SBE-β-CD]
cell viability (Caco-2 cells; Caco-2, 200 and 300 μg/mL): lower than 80% | apparent stability constant (Kc) for Frax complexation [3]: 168.20 M⁻¹

COc1cc2c(c(OC)c1OC)-c1ccc(OC)c(=O)cc1[C@@H](NC(C)=O)CC2 [Colchicine, colchicine, reference compound]
MCHC (mean corpuscular hemoglobin concentration) ([2]; 7 weeks): 341.86 ± 9.91 | PDW (platelet distribution width) ([2]; 7 weeks): 14.99 ± 0.22 | PLT (platelet) ([2]; 7 weeks, colchicine group (0.2 mg/kg), in 10^9/L (unit assumed)): 1363.86 ± 333.63 | HCT (haematocrit) [2, 5]: 39.06 ± 2.62 | RDW-CV (red cell volume distribution width) [2, 5]: 16.24 ± 1.60 | MCV (mean cell volume) [2, 6]: 43.09 ± 2.97 | MPV (meanplateletvolume) [2, 6]: 6.80 ± 0.51 | RDW-SD [2, 6]: 29.86 ± 4.02 | HGB (hemoglobin) ([2]; 7 weeks, colchicine group (0.2 mg/kg), in g/L (unit assumed)): 133.57 ± 9.50 | MCH (mean corpuscular hemoglobin) ([2]; 7 weeks, colchicine group (0.2 mg/kg), in pg (unit assumed)): 14.71 ± 0.70 | WBC (white blood cell) ([2]; 7 weeks, in 10^9/L (unit assumed)): 9.61 ± 4.41 | RBC (red blood cell) ([2]; 7 weeks, in 10^12/L (unit assumed)): 9.13 ± 1.01
